According to patent publication US9573887B2, “Naphthalene derivative” (Daito Chemix Corporation, priority 2010, dated 2017):
Counter-ions that a name gives are not always drawn.

Each molecule was assayed against T1, Mouse VCP (Mus musculus, UniProt Q01853) (assay: ATPase activity of purified His-tagged VCP, [γ-32P]ATP, liberated phosphate by liquid scintillation). Conditions: compounds of Comparative Examples; determined in the same manner as the Examples.
T1 construct: histidine tag (N); made in house; host or cells: Sf-9 insect cells (baculovirus vector pVL1392)
T1 sequence (Q01853 whole entry): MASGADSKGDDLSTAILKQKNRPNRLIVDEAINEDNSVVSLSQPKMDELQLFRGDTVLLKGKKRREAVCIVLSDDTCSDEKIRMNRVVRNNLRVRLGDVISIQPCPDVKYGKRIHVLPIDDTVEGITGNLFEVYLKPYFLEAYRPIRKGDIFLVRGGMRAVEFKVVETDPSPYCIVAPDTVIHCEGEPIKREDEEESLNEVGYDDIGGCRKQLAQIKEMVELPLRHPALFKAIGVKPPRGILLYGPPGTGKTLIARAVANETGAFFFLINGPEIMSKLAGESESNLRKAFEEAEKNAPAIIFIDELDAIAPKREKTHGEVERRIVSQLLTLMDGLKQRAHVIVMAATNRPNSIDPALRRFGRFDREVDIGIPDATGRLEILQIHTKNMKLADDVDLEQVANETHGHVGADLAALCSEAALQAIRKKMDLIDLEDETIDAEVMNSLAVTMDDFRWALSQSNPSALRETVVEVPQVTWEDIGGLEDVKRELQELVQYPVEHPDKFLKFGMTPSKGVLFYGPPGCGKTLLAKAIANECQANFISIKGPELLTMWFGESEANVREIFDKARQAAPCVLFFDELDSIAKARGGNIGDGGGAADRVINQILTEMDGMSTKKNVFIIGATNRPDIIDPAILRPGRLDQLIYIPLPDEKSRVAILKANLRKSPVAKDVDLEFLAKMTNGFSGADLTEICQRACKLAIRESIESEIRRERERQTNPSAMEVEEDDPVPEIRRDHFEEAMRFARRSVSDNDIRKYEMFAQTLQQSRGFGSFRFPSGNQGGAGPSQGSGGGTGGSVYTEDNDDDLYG
Format: biochemical
Method in brief: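 Liberated 32P-phosphate, extracted as a molybdate complex and counted by liquid scintillation, was the readout. Reactions used 500 ng Sf-9-expressed, Ni-purified His-VCP (mouse), 100 μM [γ-32P]ATP and varied test concentrations for 10 min at 37° C in HEPES pH 7.4 buffer with Mg2+ and DTT. IC50 derived by curve fitting.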

IC50 [nM]	SMILES
> 100000	O=[N+]([O-])c1ccc(-c2cccc3c2sc2ccccc23)nc1 [Example 29, sodium salt]
> 10000	Nc1c(/N=N/c2ccc(-c3ccccc3-c3ccccc3)nc2)cc(S(N)(=O)=O)c2ccccc12 [Example 14, sodium salt]

Same assay, conditions: compounds of Examples; ATPase inhibitory activity; 500 ng VCP, 100 μM ATP, 37° C., 10 minutes

SMILES	IC50 [nM]
Nc1c(/N=N/c2ccc(-c3ccccc3O)nc2)cc(S(=O)(=O)O)c2ccccc12 [Example 63, 4-amino-3-[6-(2-hydroxyphenyl)pyridine-3-ylazo]naphthalene-1-sulfonic acid sodium salt]	807
Nc1c(/N=N/c2ccc(F)cc2)cc(S(=O)(=O)O)c2ccccc12 [Example 102, 4-amino-3-(4-fluorophenylazo)naphthalene-1-sulfonic acid sodium salt]	904
Nc1c(/N=N/c2ccc(C(=O)c3ccccc3)cc2)cc(S(=O)(=O)O)c2ccccc12 [Example 131, 4-amino-3-(4-benzoylphenylazo)naphthalene-1-sulfonic acid sodium salt]	242
Nc1c(/N=N/c2ccc(C(=O)O)cc2)cc(S(=O)(=O)O)c2ccccc12 [Example 104, 4-(1-amino-4-sulfonaphthalene-2-ylazo)benzoic acid disodium salt]	2070
CC(=O)c1cccc(-c2ccc(/N=N/c3cc(S(=O)(=O)O)c4ccccc4c3N)cn2)c1 [Example 15, 3-[6-(3-acetylphenyl)pyridine-3-ylazo]-4-aminonaphthalene-1-sulfonic acid sodium salt]	189
Cc1ccc(-c2ccc(Cl)cc2)c(-c2ccc(/N=N/c3cc(S(=O)(=O)O)c4ccccc4c3N)cn2)c1 [Example 72, 4-amino-3-[6-(4′-chloro-4-methylbiphenyl-2-yl)pyridine-3-ylazo]naphthalene-1-sulfonic acid sodium salt]	796
Nc1c(/N=N/c2ccc(Cl)cc2Cl)cc(S(=O)(=O)O)c2ccccc12 [Example 111, 4-amino-3-(2,4-dichlorophenylazo)naphthalene-1-sulfonic acid sodium salt]	244
Nc1c(/N=N/c2ccc(-c3cccc(CN4CCOCC4)c3)nc2)cc(S(=O)(=O)O)c2ccccc12 [Example 11, 4-amino-3-[6-(3-morpholine-4-ylmethylphenyl)pyridine-3-ylazo]naphthalene-1-sulfonic acid sodium salt]	426
COc1ccccc1-c1ccc(/N=N/c2cc(S(=O)(=O)O)c3ccccc3c2N)cn1 [Example 25, 4-amino-3-[6-(2-methoxyphenyl)pyridine-3-ylazo]naphthalene-1-sulfonic acid sodium salt]	300
CCCCOc1c(OCC)cc(C=O)cc1-c1ccc(/N=N/c2cc(S(=O)(=O)O)c3ccccc3c2N)cn1 [Example 148, 4-amino-3-[6-(2-butoxy-3-ethoxy-5-formylphenyl)pyridine-3-ylazo]naphthalene-1-sulfonic acid sodium salt]	1560
Nc1c(/N=N/c2ccc(-c3c(OCCCNC(=O)c4cccnc4Cl)ccc4c3sc3ccccc34)nc2)cc(S(=O)(=O)O)c2ccccc12 [Example 81, 4-amino-3-[6-(3-{3-[(2-chloropyridine-3-carbonyl)amino]propoxy}dibenzothiophene-4-yl)pyridine-3-ylazo]naphthalene-1-sulfonic acid sodium salt]	207
Nc1c(/N=N/c2cccc(OCc3ccncc3)c2)cc(S(=O)(=O)O)c2ccccc12 [Example 139, 4-amino-3-[3-(pyridine-4-ylmethoxy)phenylazo]naphthalene-1-sulfonic acid sodium salt]	600
Nc1c(/N=N/c2ccc(-c3cccc(-c4ccccc4)c3)nc2)cc(S(=O)(=O)O)c2ccccc12 [Example 42, 4-amino-3-(6-biphenyl-3-ylpyridine-3-ylazo)naphthalene-1-sulfonic acid sodium salt]	769
Nc1c(/N=N/c2ccc(-c3cccnc3)cc2)cc(S(=O)(=O)O)c2ccccc12 [Example 123, 4-amino-3-(4-pyridine-3-ylphenylazo)-1-naphthalenesulfonic acid sodium salt]	274
COc1ccc(-c2ccc(/N=N/c3cc(S(=O)(=O)O)c4ccccc4c3N)cn2)cc1 [Example 26, 4-amino-3-[6-(4-methoxyphenyl)pyridine-3-ylazo]naphthalene-1-sulfonic acid sodium salt]	304
Nc1c(/N=N/c2ccccc2Cl)cc(S(=O)(=O)O)c2ccccc12 [Example 98, 4-amino-3-(2-chlorophenylazo)naphthalene-1-sulfonic acid sodium salt]	591
Nc1c(/N=N/c2ccc(Cl)c(Cl)c2)cc(S(=O)(=O)O)c2ccccc12 [Example 112, 4-amino-3-(3,4-dichlorophenylazo)naphthalene-1-sulfonic acid sodium salt]	526
CCCOc1ccc(F)cc1-c1ccc(/N=N/c2cc(S(=O)(=O)O)c3ccccc3c2N)cn1 [Example 55, 4-amino-3-[6-(5-fluoro-2-propoxyphenyl)pyridine-3-ylazo]naphthalene-1-sulfonic acid sodium salt]	139

SMILES	IC50 [nM]
Nc1c(/N=N/c2c(Cl)cc(Cl)cc2Cl)cc(S(=O)(=O)O)c2ccccc12 [Example 115, 4-amino-3-(2,4,6-trichlorophenylazo)naphthalene-1-sulfonic acid sodium salt]	297
N#Cc1ccc(/N=N/c2cc(S(=O)(=O)O)c3ccccc3c2N)cc1 [Example 107, 4-amino-3-(4-cyanophenylazo)naphthalene-1-sulfonic acid sodium salt]	540
Nc1c(/N=N/c2ccc(-c3ccccc3OCCCO)nc2)cc(S(=O)(=O)O)c2ccccc12 [Example 66, 4-amino-3-{6-[2-(3-hydroxypropoxy)phenyl]pyridine-3-ylazo}naphthalene-1-sulfonic acid sodium salt]	232
CCCOc1cc(F)ccc1-c1ccc(/N=N/c2cc(S(=O)(=O)O)c3ccccc3c2N)cn1 [Example 57, 4-amino-3-[6-(4-fluoro-2-propoxyphenyl)pyridine-3-ylazo]naphthalene-1-sulfonic acid sodium salt]	1390
Cc1cccc(-c2ccc(/N=N/c3cc(S(=O)(=O)O)c4ccccc4c3N)cn2)c1C [Example 33, 4-amino-3-[6-(2,3-dimethylphenyl)pyridine-3-ylazo]naphthalene-1-sulfonic acid sodium salt]	301
Cc1cccc(-c2ccc(/N=N/c3cc(S(=O)(=O)O)c4ccccc4c3N)cc2)c1 [Example 126, 4-amino-3-(3′-methylbiphenyl-4-ylazo)naphthalene-1-sulfonic acid sodium salt]	343
Cc1cc(/N=N/c2cc(S(=O)(=O)O)c3ccccc3c2N)cnc1-c1ccccc1-c1ccccc1 [Example 86, 4-amino-3-(6-biphenyl-2-yl-5-methylpyridine-3-ylazo)naphthalene-1-sulfonic acid sodium salt]	552
N#Cc1ccc(-c2ccc(/N=N/c3cc(S(=O)(=O)O)c4ccccc4c3N)cn2)cc1 [Example 45, 4-amino-3-[6-(4-cyanophenyl)pyridine-3-ylazo]naphthalene-1-sulfonic acid sodium salt]	524
Nc1c(/N=N/c2ccc(OCc3ccncc3)cc2)cc(S(=O)(=O)O)c2ccccc12 [Example 132, 4-amino-3-[4-(pyridine-4-ylmethoxy)phenylazo]naphthalene-1-sulfonic acid sodium salt]	135
Nc1c(/N=N/c2ccc(-c3ccc(C(=O)c4ccccc4)cc3)nc2)cc(S(=O)(=O)O)c2ccccc12 [Example 47, 4-amino-3-[6-(4-benzoylphenyl)pyridine-3-ylazo]naphthalene-1-sulfonic acid sodium salt]	589
COC(=O)CCC(=O)c1ccc(-c2ccc(/N=N/c3cc(S(=O)(=O)O)c4ccccc4c3N)cn2)cc1 [Example 40, methyl 4-{4-[5-(1-amino-4-sulfonaphthalene-2-ylazo)pyridine-2-yl]phenyl}-4-oxobutyrate sodium salt]	328
Cc1cc(F)ccc1-c1ccc(/N=N/c2cc(S(=O)(=O)O)c3ccccc3c2N)cc1F [Example 144, 4-amino-3-(2,4′-difluoro-2′-methyl-diphenyl-4-ylazo)naphthalene-1-sulfonic acid sodium salt]	199
Nc1c(/N=N/c2cccnc2-c2cccnc2)cc(S(=O)(=O)O)c2ccccc12 [Example 51, 4-amino-3-([2,3′]-bipyridinyl3-ylazo)naphthalene-1-sulfonic acid sodium salt]	3070
Nc1c(/N=N/c2ccc(-c3ccccc3C(F)(F)F)nc2)cc(S(=O)(=O)O)c2ccccc12 [Example 20, 4-amino-3-[6-(2-trifluoromethylphenyl)pyridine-3-ylazo]naphthalene-1-sulfonic acid sodium salt]	170
Nc1c(/N=N/c2ccc(-c3cccc(Cl)c3)nc2)cc(S(=O)(=O)O)c2ccccc12 [Example 23, 4-amino-3-[6-(3-chlorophenyl)pyridine-3-ylazo]naphthalene-1-sulfonic acid sodium salt]	324
Cc1ccc(-c2ccc(/N=N/c3cc(S(=O)(=O)O)c4ccccc4c3N)cn2)cc1 [Example 8, 4-amino-3-(6-p-tolylpyridine-3-ylazo)naphthalene-1-sulfonic acid sodium salt]	430
Cc1ccc2cccc(-c3ccc(/N=N/c4cc(S(=O)(=O)O)c5ccccc5c4N)cn3)c2n1 [Example 84, 4-amino-3-[6-(2-methylquinoline-8-yl)pyridine-3-ylazo]naphthalene-1-sulfonic acid sodium salt]	567
CCCCCCOc1ccccc1-c1ccc(/N=N/c2cc(S(=O)(=O)O)c3ccccc3c2N)cn1 [Example 61, 4-amino-3-[6-(2-hexyloxyphenyl)pyridine-3-ylazo]naphthalene-1-sulfonic acid sodium salt]	843
